Reference: patent US20250282742A1, “BENZOFURAN DERIVATIVES FOR TARGETING AUTOPHAGY” (Automera PTE. LTD, priority 2024, published 2025)

What was measured:
[1] = target: T1, Recombinant p62 protein (Homo sapiens, UniProt Q13501); test: Surface plasmon resonance (SPR) compound binding to immobilised p62; conditions: recombinant p62, 15° C
T1 construct: Recombinant p62 protein was buffer exchanged into Biacore SPR running buffer
Description: Example 28: Surface Plasmon Resonance (SPR) Analysis
Recombinant p62 protein was buffer exchanged into Biacore SPR running buffer (Cytiva 100671) using the Slide-A-Lyzer Mini Dialysis system 7K MWCO (Thermo Fisher Scientific, Cat no. 69560). The final protein concentration was determined using the Nanodrop One spectrophotometer (Thermo Fisher Scientific, cat no. ND-ONE-W), with calibration for the dialysis buffer.
The prepared protein was diluted in sodium acetate buffer (NaAc, pH 5.5, Cytiva) to concentrations ranging from approximately 0.25-40 μg/mL. Post-immobilization, the protein required approximately 16 hours of equilibration in running buffer supplemented with 1% DMSO at 15° C. to ensure adequate surface equilibration and protein reorganization.
All SPR experiments were conducted at a constant temperature of 15° C. The SPR chip surface was activated using EDC/NHS for a contact time of 6-10 min at a flow rate of 10 μL/min. This was followed by protein immobilization for 2100 seconds and ethanolamine capping for 420 seconds, both at the same flow rate. Immediately after immobilization, the NH2—REEE peptide was analyzed in Single Cycle Kinetics mode (SCK) to verify surface activity, ensuring it binds the sample with the published affinity (−20 μM by SPR).
For general compound binding studies, experiments were performed at 15° C. using a running buffer composed of 10 mM HEPES, 150 mM NaCl, 1 mM DTT, 0.05% Tween 20, and 1% DMSO at pH 7.4. The test compound was initially prepared at a 20 mM concentration in DMSO and subsequently titrated in 2-fold dilutions. For each assay, 2 μL of the compound was mixed with 198 μL of the running buffer, and the mixture was thoroughly pipetted approximately 15 times for homogenization.
A series of blank injections (0 μM concentration) were included for double referencing, with at least 8 or 16 per plate depending on the format. Typical injection parameters were 120 seconds for association and 180 seconds for dissociation at a flow rate of […]. A four-point solvent correction was prepared with DMSO concentrations ranging from 2% to 0.5% in the buffer. Post each compound injection, the system's needles were washed with 50% DMSO.
Analysis of the SPR data was conducted using the Cytiva Evaluation software. The binding levels at the late time-point of each interaction were corrected for reference, then normalized to percentage bound values to account for variations in immobilization levels, protein molecular weight, and compound molecular weight.
Compound binding studies were carried out according to experimental procedures above and SPR % occupancy was determined and summarized in Table 7.

[2] = system: LC3 protein (LC3-II/LC3-I) in HeLa cells; test: LC3 lipidation assay (LC3-II/LC3-I, Western blot, 24 h treatment); type: cell-based; conditions: fold change in LC3-II/LC3-I relative to DMSO control
Description: (§1) HeLa cells were seeded in 6-well plates (700,000 cells) and allowed to adhere overnight. Media was replaced one hour before administering either vehicle (DMSO) or test compounds. After 24 hours of treatment, the media was discarded, and cells were rinsed once with ice-cold 1×PBS before detached from plates with ice-cold RIPA Lysis and Extraction Buffer (Thermo Fisher Scientific) which was supplemented with protease and phosphatase inhibitors. The resulting cell suspensions were transferred to pre-chilled microcentrifuge tubes, incubated on ice for 20 min with intermittent mixing and then centrifuged at 12,000 rpm for 20 min at 4° C. The supernatants were then aspirated slowly and transferred into new tubes kept on ice. The protein concentration in the samples was determined using BCA kit (Thermo Fisher Scientific) as per manufacturer's instructions.
(§2) For the p62 oligomerization and LC3 lipidation assays, cell lysates were prepared using RIPA buffer supplemented with 2% SDS and benzonase (Sigma). The lysates were then combined with 4× Laemmli protein sample buffer (Bio-Rad), heated at 70° C. for 10 min and subjected to a brief centrifugation of 10-15 seconds.
(§3) For p62 oligomerization and LC3 lipidation assays, lysates containing 30 μg of protein and for BRD4 and FKBP12(F36V) degradation assays, lysates containing 20 μg of protein, were loaded slowly into the wells of 4-20% gradient Tris-glycine gels (Bio-Rad). The gels were run at 100V until completion and transferred onto PVDF membranes. Membranes were blocked using 5% milk in TBS-Tween (0.1%) buffer at room temperature for 1 hour. The membranes were incubated with primary antibody in 5% milk-TBST with shaking, overnight at 4° C. The primary antibodies used were: p62 (Novus Biologicals 2C11, H00008878-MO1), LC3A/B (Cell Signalling Technology D3U4C, 12741S), FKBP12 (Abcam ab24373), BRD4 (Cell Signalling Technology E2A7X, 13440S), GAPDH (Cell Signalling Technology D4C6R, 97166S), and β-Actin (Proteintech 66009-1-Ig). Following primary antibody incubation, membranes were washed thrice with TBST 10 min before and after incubation with secondary-HRP conjugated antibody in 5% milk-TBST for 1 hour at room temperature. The secondary antibodies used were: Anti-Mouse IgG HRP Conjugate (Promega W4021B) and Anti-Rabbit IgG HRP Conjugate (Promega W4011B). For the p62 oligomerization assay, the total protein levels were assessed using Ponceau staining (Thermo Fisher Scientific) of PVDF membrane as per recommendation by manufacturer's guidelines.
(§4) Imaging was acquired using SuperSignal™ West Pico PLUS Chemiluminescent Substrate (Thermo Fisher Scientific) with iBright Invitrogen FL100 imaging system. Band signal intensity, reflective of protein concentrations, were quantified using Invitrogen™ iBright™ Analysis and Image J software.
HeLa cells were treated with compounds for 24 hours to evaluate the effect of these compounds on LC3-II/LC3-I levels, a measure of autophagy activation. The changes in levels of LC3-I, LC3-II and β-Actin (loading control) were assessed by Western blotting, as described in experimental procedures. The fold increase of LC3-II/LC3-I levels induced by compound treatment relative to vehicle control (DMSO) was determined and summarized in Table 9. Specifically, FIGS. 3A-C show Western blot images and their corresponding quantification showing the lipidation levels of LC3 protein (LC3-II/LC3-I) by 24 hours compound treatments at listed concentrations, relative to vehicle control (DMSO) in HeLa cells.

[3] = system: p62 oligomers in HeLa cells; test: p62 oligomerization assay (Western blot, 24 h treatment); type: cell-based; conditions: fold change of p62 oligomer levels relative to DMSO control
Description: as §1, §2, §3, §4
HeLa cells were treated with compounds for 24 hours to evaluate the effect of these compounds on p62 oligomerisation activity. The resulting changes in levels of p62 oligomers were assessed by Western blotting, as described in experimental procedures. The fold change of p62 oligomer levels induced by compound treatment relative to vehicle control (DMSO) was determined and summarized in Table 8. Specifically, FIGS. 2A-C show Western blot images and their corresponding quantification showing the levels of high molecular weight (100-200 kDa) p62 oligomers by 24 hours compound treatments at listed concentrations, relative to vehicle control (DMSO) in HeLa cells. Protein loading consistencies was assessed by Ponceau staining (not shown).

[4] = target: T2, BRD4 in HeLa cells (Homo sapiens, UniProt O60885); test: BRD4 degradation assay (Western blot, 24 h treatment); type: cell-based; conditions: doses up to 10 μM
T2 construct: endogenous in cells; host or cells: HeLa
Description: as §1
For the BRD4 degradation assay, cell lysates were prepared with RIPA buffer containing 0.25% SDS. These were mixed with 4× Laemmli protein sample buffer (Bio-Rad) supplemented with beta-mercaptoethaol (355 mM). The lysates were then heated at 95° C. for 5 min, and briefly centrifuged for 10-15 seconds.
For p62 oligomerization and LC3 lipidation assays, lysates containing 30 μg of protein and for BRD4 and FKBP12(F36V) degradation assays, lysates containing 20 μg of protein, were loaded slowly into the wells of 4-20% gradient Tris-glycine gels (Bio-Rad). The gels were run at 100V until completion and transferred onto PVDF membranes. Membranes were blocked using 5% milk in TBS-Tween (0.1%) buffer at room temperature for 1 hour. The membranes were incubated with primary antibody in 5% milk-TBST with shaking, overnight at 4° C. […] For the p62 oligomerization assay, the total protein levels were assessed using Ponceau staining (Thermo Fisher Scientific) of PVDF membrane as per recommendation by manufacturer's guidelines.
as §4
To evaluate levels of protein degradation by compounds 100-103, HeLa cells were treated with the corresponding compounds at doses up to 10 μM for 24 hours. The changes in levels of BRD4 and GAPDH (loading control) were assessed by Western blotting, as described in experimental procedures. Results are summarized in Table 11 below, measured by percentage change in BRD4 levels by compound treatment relative to vehicle (DMSO) control.

T1 sequence (Q13501 whole entry, species assumed): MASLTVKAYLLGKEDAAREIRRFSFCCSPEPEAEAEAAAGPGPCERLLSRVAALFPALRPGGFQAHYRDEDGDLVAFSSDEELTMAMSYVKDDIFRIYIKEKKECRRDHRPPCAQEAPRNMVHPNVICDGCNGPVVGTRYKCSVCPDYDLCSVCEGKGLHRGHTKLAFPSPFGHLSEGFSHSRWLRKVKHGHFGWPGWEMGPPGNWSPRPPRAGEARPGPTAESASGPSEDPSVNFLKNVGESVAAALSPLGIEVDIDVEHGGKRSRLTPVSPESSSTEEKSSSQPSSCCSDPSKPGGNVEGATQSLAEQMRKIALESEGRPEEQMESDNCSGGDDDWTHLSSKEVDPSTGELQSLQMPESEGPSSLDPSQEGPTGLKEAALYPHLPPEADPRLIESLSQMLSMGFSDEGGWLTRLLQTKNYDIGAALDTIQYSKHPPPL

Compound | receptor occupancy at 100 µM [1] | LC3 lipidation [2] | p62 oligomerization [3] | Degradation (change in BRD4 levels relative to DMSO control) [4]
CC(C)NCCOCc1ccc2cc(Cc3ccccc3)oc2c1 [Compound 7, N-(2-((2-benzylbenzofuran-6-yl)methoxy)ethyl)propan-2-amine] | 30 to 70% | ++ (> 2-fold change in LC3-II/LC3-I relative to DMSO control) | ++ (> 2-fold change relative to DMSO control) | 
CC(C)NCC(O)COc1ccc2cc(Cc3ccccc3)oc2c1 (stereo not shown) [Compound 9, 1-((2-benzylbenzofuran-6-yl)oxy)-3-(isopropylamino)propan-2-ol] | > 70% | ++ (> 2-fold change in LC3-II/LC3-I relative to DMSO control) | + (< 2-fold change relative to DMSO control) | 
OCCNCc1ccc2cc(CNC3CCCC(O)C3)oc2c1 (stereo not shown) [Compound 33, 3-(((6-(((2-hydroxyethyl)amino)methyl)benzofuran-2-yl)methyl)amino)cyclohexan-1-ol] | 30 to 70% | + (< 2-fold change in LC3-II/LC3-I relative to DMSO control) | + (< 2-fold change relative to DMSO control) | 
OCCNCc1ccc2c(Cc3ccccc3)coc2c1 [Compound 43, 2-(((3-benzylbenzofuran-6-yl)methyl)amino)ethan-1-ol] | 30 to 70% | ++ (> 2-fold change in LC3-II/LC3-I relative to DMSO control) | + (< 2-fold change relative to DMSO control) | 
OCCNCc1ccc2cc(CCc3ccccc3)oc2c1 [compound 3] | 30 to 70% | ++ (> 2-fold change in LC3-II/LC3-I relative to DMSO control) | ++ (> 2-fold change relative to DMSO control) | 
CC(O)CNCc1ccc2cc(Cc3ccccc3)oc2c1 (stereo not shown) [compound 5] | 30 to 70% | + (< 2-fold change in LC3-II/LC3-I relative to DMSO control) | + (< 2-fold change relative to DMSO control) | 
CNCCOCc1ccc2cc(Cc3ccccc3)oc2c1 [compound 8] | 30 to 70% | + (< 2-fold change in LC3-II/LC3-I relative to DMSO control) | ++ (> 2-fold change relative to DMSO control) | 
OC1CC(NCc2ccc3cc(Cc4ccccc4)oc3c2)C1 (stereo not shown) [compound 10] | 30 to 70% | + (< 2-fold change in LC3-II/LC3-I relative to DMSO control) | ++ (> 2-fold change relative to DMSO control) | 
OCCNCc1ccc2cc(Cc3cccc(Cl)c3)oc2c1 [compound 15] | > 70% | + (< 2-fold change in LC3-II/LC3-I relative to DMSO control) | ++ (> 2-fold change relative to DMSO control) | 
COc1ccc(Cc2cc3ccc(CNCCO)cc3o2)cc1 [compound 17] | 30 to 70% | + (< 2-fold change in LC3-II/LC3-I relative to DMSO control) | + (< 2-fold change relative to DMSO control) | 
O=C(Nc1ccccc1)c1cc2ccc(CNCCO)cc2o1 [compound 35] | 30 to 70% | + (< 2-fold change in LC3-II/LC3-I relative to DMSO control) | + (< 2-fold change relative to DMSO control) | 
OCCNCc1cc(F)c2cc(Cc3ccccc3)oc2c1 [compound 37] | 30 to 70% | ++ (> 2-fold change in LC3-II/LC3-I relative to DMSO control) | ++ (> 2-fold change relative to DMSO control) | 
Cc1sc2c(c1C)C(c1ccc(Cl)cc1)=N[C@@H](CC(=O)NCCOCCOCCOCCNCc1ccc3cc(Cc4ccccc4)oc3c1)c1nnc(C)n1-2 [compound 100, (S)-N-(1-(2-benzylbenzofuran-6-yl)-5,8,11-trioxa-2-azatridecan-13-yl)-2-(4-(4-chlorophenyl)-2,3,9-trimethyl-6H-thieno[3,2-f][1,2,4]triazolo[4,3-a][1,4]diazepin-6-yl)acetamide] |  |  |  | ++ (> 2-fold change in BRD4 levels relative to DMSO control)
Cc1sc2c(c1C)C(c1ccc(Cl)cc1)=N[C@@H](CC(=O)NCCOCCOCCOCCNCc1ccc3cc(CCc4ccccc4)oc3c1)c1nnc(C)n1-2 [compound 101] |  |  |  | ++ (> 2-fold change in BRD4 levels relative to DMSO control)
Cc1sc2c(c1C)C(c1ccc(Cl)cc1)=N[C@@H](CC(=O)NCCOCCNCc1ccc3cc(Cc4ccccc4)oc3c1)c1nnc(C)n1-2 [compound 102] |  |  |  | + (< 2-fold change in BRD4 levels relative to DMSO control)
Cc1sc2c(c1C)C(c1ccc(Cl)cc1)=N[C@@H](CC(=O)NCCOCCOCCNCc1ccc3cc(Cc4ccccc4)oc3c1)c1nnc(C)n1-2 [compound 103] |  |  |  | ++ (> 2-fold change in BRD4 levels relative to DMSO control)
